In patent US20140199420A1, “USES OF TOONA SINENSIS EXTRACT” (National Chung Hsing University, priority 2013, published 2014):

Tested on: lactic acid bacteria
Assay: Lactic acid bacteria count of Taiwanese style sausage during storage
Details: second group, 25% sodium lactate; at 4 and 8 weeks storage at 15° C.
Protocol: The each group of sausages prepared from example 4 was packed in equal with vacuum package and stored at 15° C. for 8 weeks. Taking the amounts of sausages from the each group in 0, 1, 2, 3, 4 and 8 weeks were separately packed into sterile bags with sterile water and homogenized with a stomacher (Lab-Blender 400, England) for 30 second to have dilutions of the each group's sausages at different storage times for further microbiological analyzing.
The dilutions of the each group's sausage at different storage times were separately poured into a petri dish, added first layer of MRS agar into the each petri dish and then mixed completely. The second layer of MRS agar was poured on the first layer of MRS agar to produce an anaerobic condition then mixed and incubated at 37° C. for 48 hours in an anaerobic jar.

SMILES: CC(O)C(=O)[O-].[Na+] (stereo not shown) [sodium lactate]
- lactic acid bacteria count: 7.52 log CFU/g
